# PubChem BioAssay (NCI)
#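 1) Cells in 96-well plates. 2) Compound, 48 h, 5 concentrations. 3) Linear interpolation between surrounding doses. 4) Unreached endpoint = highest concentration. Abbreviation: GI50, concentration required for 50% inhibition of growth. TGI: total growth inhibition.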
# Key:
# Assay in all cases: NCI anticancer screen, dose series, 48 h
# NCI-H522 lung = test system: NCI-H522 lung
# HS 578T breast = test system: HS 578T breast
# NCI/ADR-RES ovarian = test system: NCI/ADR-RES ovarian
# OVCAR-8 ovarian = test system: OVCAR-8 ovarian
# RXF 393 renal = test system: RXF 393 renal
# A498 renal = test system: A498 renal
# UACC-257 melanoma = test system: UACC-257 melanoma
# OVCAR-4 ovarian = test system: OVCAR-4 ovarian
# SN12C renal = test system: SN12C renal
# MCF7 breast = test system: MCF7 breast
# MDA-MB-435 = test system: MDA-MB-435
# SK-OV-3 ovarian = test system: SK-OV-3 ovarian
# HT29 colon = test system: HT29 colon
# OVCAR-5 ovarian = test system: OVCAR-5 ovarian
# SK-MEL-2 melanoma = test system: SK-MEL-2 melanoma
# NCI-H226 lung = test system: NCI-H226 lung
# HL-60(TB) leukemia = test system: HL-60(TB) leukemia
# A549 NSCLC = test system: A549 NSCLC
# SF-268 CNS = test system: SF-268 CNS
# UACC-62 melanoma = test system: UACC-62 melanoma
# MALME-3M melanoma = test system: MALME-3M melanoma
# HOP-92 NSCLC = test system: HOP-92 NSCLC
# DU-145 prostate = test system: DU-145 prostate
# SK-MEL-28 melanoma = test system: SK-MEL-28 melanoma
# TK-10 renal = test system: TK-10 renal
# HOP-62 NSCLC = test system: HOP-62 NSCLC
# K-562 leukemia = test system: K-562 leukemia
# COLO 205 colon = test system: COLO 205 colon
# NCI-H23 lung = test system: NCI-H23 lung
# CCRF-CEM leukemia = test system: CCRF-CEM leukemia
# KM12 colon = test system: KM12 colon
# OVCAR-3 ovarian = test system: OVCAR-3 ovarian
# SF-539 CNS = test system: SF-539 CNS
# 786-0 renal = test system: 786-0 renal
# U251 CNS = test system: U251 CNS
# SNB-19 CNS = test system: SNB-19 CNS
# LOX IMVI melanoma = test system: LOX IMVI melanoma
# SF-295 CNS = test system: SF-295 CNS
# SNB-75 CNS = test system: SNB-75 CNS
# T-47D breast = test system: T-47D breast
# HCC-2998 colon = test system: HCC-2998 colon
# SR leukemia = test system: SR leukemia
# ACHN renal = test system: ACHN renal
# BT-549 breast = test system: BT-549 breast
# NCI-H460 lung = test system: NCI-H460 lung
# HCT-116 colon = test system: HCT-116 colon
# IGROV1 ovarian = test system: IGROV1 ovarian
# UO-31 renal = test system: UO-31 renal
# PC-3 prostate = test system: PC-3 prostate
# SW-620 colon = test system: SW-620 colon
# M14 melanoma = test system: M14 melanoma
# MDA-MB-231 breast = test system: MDA-MB-231 breast
# RPMI-8226 leukemia = test system: RPMI-8226 leukemia
# CAKI-1 renal = test system: CAKI-1 renal
# HCT-15 colon = test system: HCT-15 colon
# SK-MEL-5 melanoma = test system: SK-MEL-5 melanoma
# EKVX NSCLC = test system: EKVX NSCLC
# MOLT-4 leukemia = test system: MOLT-4 leukemia
# MDA-N = test system: MDA-N
smiles,measurement,setting,value
O=C1c2cccc3c(N4CCN(c5ccc6c7c(cccc57)C(=O)N(CCN5CCNCC5)C6=O)CC4)ccc(c23)C(=O)N1CCN1CCNCC1,GI50,NCI-H522 lung,18 µM
same,TGI,NCI-H522 lung,44.2 µM
same,GI50,HS 578T breast,17.2 µM
same,TGI,HS 578T breast,44.8 µM
same,GI50,NCI/ADR-RES ovarian,13.8 µM
same,TGI,NCI/ADR-RES ovarian,32.6 µM
same,GI50,OVCAR-8 ovarian,10.9 µM
same,TGI,OVCAR-8 ovarian,41.5 µM
same,GI50,RXF 393 renal,16.8 µM
same,TGI,RXF 393 renal,33 µM
same,GI50,A498 renal,17.3 µM
same,TGI,A498 renal,36.4 µM
same,GI50,UACC-257 melanoma,19.5 µM
same,TGI,UACC-257 melanoma,37.9 µM
same,GI50,OVCAR-4 ovarian,18.3 µM
same,TGI,OVCAR-4 ovarian,42.3 µM
same,GI50,SN12C renal,7.46 µM
same,TGI,SN12C renal,23.2 µM
same,GI50,MCF7 breast,11.2 µM
same,TGI,MCF7 breast,41.1 µM
same,GI50,MDA-MB-435,13.2 µM
same,TGI,MDA-MB-435,34.2 µM
same,GI50,SK-OV-3 ovarian,25.7 µM
same,TGI,SK-OV-3 ovarian,82.9 µM
same,GI50,HT29 colon,3.91 µM
same,TGI,HT29 colon,> 100 µM
same,GI50,OVCAR-5 ovarian,15.1 µM
same,TGI,OVCAR-5 ovarian,34.1 µM
same,GI50,SK-MEL-2 melanoma,24.7 µM
same,TGI,SK-MEL-2 melanoma,67.5 µM
same,GI50,NCI-H226 lung,12.4 µM
same,TGI,NCI-H226 lung,29 µM
same,GI50,HL-60(TB) leukemia,4.19 µM
same,TGI,HL-60(TB) leukemia,20.6 µM
same,GI50,A549 NSCLC,16.3 µM
same,TGI,A549 NSCLC,35.6 µM
same,GI50,SF-268 CNS,16.8 µM
same,TGI,SF-268 CNS,70.7 µM
same,GI50,UACC-62 melanoma,15 µM
same,TGI,UACC-62 melanoma,30.2 µM
same,GI50,MALME-3M melanoma,17.5 µM
same,TGI,MALME-3M melanoma,40 µM
same,GI50,HOP-92 NSCLC,7.31 µM
same,TGI,HOP-92 NSCLC,29 µM
same,GI50,DU-145 prostate,14.1 µM
same,TGI,DU-145 prostate,40.6 µM
same,GI50,SK-MEL-28 melanoma,17.1 µM
same,TGI,SK-MEL-28 melanoma,34.4 µM
same,GI50,TK-10 renal,14.7 µM
same,TGI,TK-10 renal,33.4 µM
same,GI50,HOP-62 NSCLC,7.96 µM
same,TGI,HOP-62 NSCLC,27.7 µM
same,GI50,K-562 leukemia,2.78 µM
same,TGI,K-562 leukemia,8.29 µM
same,GI50,COLO 205 colon,8.87 µM
same,TGI,COLO 205 colon,> 100 µM
same,GI50,NCI-H23 lung,11 µM
same,TGI,NCI-H23 lung,26.3 µM
same,GI50,CCRF-CEM leukemia,3.09 µM
same,TGI,CCRF-CEM leukemia,18.4 µM
same,GI50,KM12 colon,12 µM
same,TGI,KM12 colon,30.5 µM
same,GI50,OVCAR-3 ovarian,20.3 µM
same,TGI,OVCAR-3 ovarian,42.1 µM
same,GI50,SF-539 CNS,13 µM
same,TGI,SF-539 CNS,34.1 µM
same,GI50,786-0 renal,1.84 µM
same,TGI,786-0 renal,4.32 µM
same,GI50,U251 CNS,16.8 µM
same,TGI,U251 CNS,35.7 µM
same,GI50,SNB-19 CNS,16.1 µM
same,TGI,SNB-19 CNS,61.6 µM
same,GI50,LOX IMVI melanoma,6.57 µM
same,TGI,LOX IMVI melanoma,25.4 µM
same,GI50,SF-295 CNS,15.5 µM
same,TGI,SF-295 CNS,35.7 µM
same,GI50,SNB-75 CNS,17.4 µM
same,TGI,SNB-75 CNS,33.8 µM
same,GI50,T-47D breast,> 100 µM
same,TGI,T-47D breast,> 100 µM
same,GI50,HCC-2998 colon,5.63 µM
same,TGI,HCC-2998 colon,20.9 µM
same,GI50,SR leukemia,2.64 µM
same,TGI,SR leukemia,8.66 µM
same,GI50,ACHN renal,7.23 µM
same,TGI,ACHN renal,22.5 µM
same,GI50,BT-549 breast,19 µM
same,TGI,BT-549 breast,39.3 µM
same,GI50,NCI-H460 lung,12.5 µM
same,TGI,NCI-H460 lung,80 µM
same,GI50,HCT-116 colon,3.8 µM
same,TGI,HCT-116 colon,42.9 µM
same,GI50,IGROV1 ovarian,6.32 µM
same,TGI,IGROV1 ovarian,29.4 µM
same,GI50,UO-31 renal,12.8 µM
same,TGI,UO-31 renal,33 µM
same,GI50,PC-3 prostate,13.5 µM
same,TGI,PC-3 prostate,32.4 µM
same,GI50,SW-620 colon,7.64 µM
same,TGI,SW-620 colon,77.7 µM
same,GI50,M14 melanoma,15 µM
same,TGI,M14 melanoma,37.2 µM
same,GI50,MDA-MB-231 breast,10.4 µM
same,TGI,MDA-MB-231 breast,25.1 µM
same,GI50,RPMI-8226 leukemia,2.45 µM
same,TGI,RPMI-8226 leukemia,8.55 µM
same,GI50,CAKI-1 renal,14.7 µM
same,TGI,CAKI-1 renal,33 µM
same,GI50,HCT-15 colon,11.3 µM
same,TGI,HCT-15 colon,31.3 µM
same,GI50,SK-MEL-5 melanoma,16.1 µM
same,TGI,SK-MEL-5 melanoma,53.4 µM
same,GI50,EKVX NSCLC,20.9 µM
same,TGI,EKVX NSCLC,47.1 µM
CC1(C)[C@H](O)CC[C@]2(C)C3=CC[C@@]4(C)[C@@H]5C[C@](C)(CO)CC[C@]5(C)CC[C@]4(C)C3=CC[C@@H]12,TGI,NCI-H522 lung,> 100 µM
same,TGI,UACC-257 melanoma,> 100 µM
same,TGI,MCF7 breast,> 100 µM
same,TGI,SK-OV-3 ovarian,> 100 µM
same,TGI,OVCAR-5 ovarian,> 100 µM
same,TGI,SK-MEL-2 melanoma,> 100 µM
same,TGI,HL-60(TB) leukemia,> 100 µM
same,TGI,SF-268 CNS,> 100 µM
same,TGI,UACC-62 melanoma,> 100 µM
same,TGI,MALME-3M melanoma,> 100 µM
same,TGI,HOP-92 NSCLC,> 100 µM
same,TGI,DU-145 prostate,> 100 µM
same,TGI,SK-MEL-28 melanoma,> 100 µM
same,TGI,HOP-62 NSCLC,> 100 µM
same,TGI,COLO 205 colon,> 100 µM
same,TGI,NCI-H23 lung,> 100 µM
same,TGI,MOLT-4 leukemia,> 100 µM
same,TGI,SR leukemia,4.72 µM
same,TGI,MDA-N,> 100 µM
same,TGI,BT-549 breast,> 100 µM
same,TGI,IGROV1 ovarian,> 100 µM
same,TGI,UO-31 renal,3.62 µM
same,TGI,M14 melanoma,> 100 µM
same,TGI,SK-MEL-5 melanoma,> 100 µM
same,TGI,EKVX NSCLC,> 100 µM
